Several values for one entry are separate records, joined by “and”; a condition that tells them apart may be missing. Identical values can stand only once. Entries after “also recorded” stand apart in the source; their conditions may differ.

In one assay the test system is mice (C57BI/6J). Kind of assay: Photothrombotic cerebral cortex infarct model in mice. It counts as in vivo, mouse. To be noted: for Infarct volume, 5 DPI carrier versus 5 DPI drug (ANOVA, Holm-Sidak): Nx-2 p=0.025, Nx-1 p=0.886. How it is done:
All in vivo experiments were performed with University of New South Wales (UNSW) Sydney Animal Care and Ethics Committee approval. To undertake this randomized blinded photothrombotic study, male and female mice (C57BI/6J) aged 2-4 months (20-30 g) were anaesthetised with a 4% isoflurane induction (on O2) and fixed onto a stereotaxic frame. Anaesthesia was maintained at 1.5% isoflurane for the rest of the procedure. The animals were constantly monitored for their heart rate and oxygen saturation with their body temperature maintained at 37±1° C. (Kent Scientific Physiology Suite system). An ophthalmological ointment was applied to the eyes for corneal protection. Analgesia Temgesic (Buprenorphine; 0.15 mg/kg; 0.32 mg/ml) was administered intramuscularly, using a 27G needle. The skull was shaved over the target cerebral cortex region and a local anaesthetic Lignocaine was injected subcutaneously (27 needle; 20 mg/ml). A midline incision was made through the skin to expose the cranium and the periosteum was removed. The surface of the cranium was made lucid by applying ophthalmological gel over the surface. The fibre-optic coupled green LED (532 nm; ˜1 mW; 1 mm diameter light guide, Thorlabs, USA) was placed over the left hemisphere of cerebral cortex (3 mm rostral to lambda; 2 mm from the midline) followed by injection of photosensitising dye Rose Bengal (50 mg/kg) with a 29G needle via the tail vein. The skull was illuminated for 5 minutes to trigger the localized thrombus formation at the target region of cerebral cortex. The skin was then sutured and the isoflurane anaesthesia was discontinued, while providing 100% oxygen until the mice regained consciousness. Mice were injected with saline (intraperitoneal, 250 μl) during the recovery phase for rehydration. The mouse was maintained on the rectal probe feedback controlled heating pad in a recovery cage until ambulatory (˜20 min) and then the animal was placed back in its cage with food and water. The mice were monitored for signs of post-operative stress on a daily basis for the five day treatment period. Mice were administered with either the carrier or Nx-2 drug (100 mg/kg) via a rectal suppository, 45 minutes after the photothrombotic lesion, and then every 24 hours for a further 4 days in the conscious mouse. At 5 days post-infarct, the mice were euthanized via an intraperitoneal injection of Lethabarb (100 mg/kg; 27 G needle), following which the mice were transcardially perfused with 4% paraformaldehyde (PFA) in phosphate buffer (0.1 M, pH 7.4). The brains were dissected out and post-fixed for overnight in 4% PFA at 4° C. The brains were cryoprotected in 10% and 30% sucrose made in 0.01 M PBS solutions overnight respectively. Images of the surface infarct were captured on a dissecting microscope. Following cryoprotection, the brains were sectioned coronally (50 μm thick) and kept in 0.01 M PBS until they were imaged under the darkfield microscope. The Image J (NIH) software was used to measure the surface area of the infarct and darkfield sections enabled measurement of the cross sectional area of the infarct (Image J, NIH). Total infarct volume was quantified by summation of areas of infarct from darkfield sections integrated with thickness of the tissue. Descriptive statistics, ANOVA and t-tests were performed to detect the significance difference among the treatment groups using Sigmaplot (Systat software, version 12.0) after establishing normal distribution of the data (alpha=0.05).
The skull of the mouse (C57BI/6J strain) was exposed to enable fibre optic illumination of a region of the cerebral cortex with green light (532 nm) to trigger localized thrombus formation due to tail vein injection of the photo sensitizing dye Rose Bengal. Macroscopic representation of the photo-thrombotic infarct was assessed 5 days post injury in mice treated with carrier only or with Nx-1 drug. […]

For assay [1], the system named is rHEK293-GCaMP5g cells. Kind of assay: Carbachol-induced Ca2+ store release in rHEK293-GCaMP5g cells (FlexStation 3). It counts as cell-based, human. To be noted: for EC50: carbachol 100 μM in Ca2+ free solution, areas under the curve (RFU) normalised to DMSO control, read-out: EC50, inhibition of Ca2+ store release; for Block of carbachol-induced Ca2+ store release: compound 4 μM, carbachol 100 μM, Ca2+ free solution. The text has this: (§1) Untransfected human embryonic kidney 293 (HEK293) cells are a model for neuronal cell Ca^2+ signalling via Gq type G protein-coupled receptors (such as the metabotropic glutamate receptors). […] The current study utilised a custom-developed recombinant human embryonic kidney 293 (rHEK293) cell line stably over-expressing a genetically encoded Ca^2+ reporter (GCaMP5g—after [Akerboom J et al., 2012 Journal of Neuroscience, 32(40): 13819-13840]). This enabled imaging of the Ca^2+ store release under conditions where Carbachol (muscarinic receptor agonist)—induced Ca^2+ store release via the endogenous M3 muscarinic receptor—was delivered in a solution (in mM: NaCl 145; KCl 5.8; MgCl2 0.9; HEPES 10, NaH2PO4 0.7, d-glucose 5.6; pH 7.2-7.4, osmolarity 310-330 mOsm/L), lacking Ca^2+, to the wells containing the adherent rHEK293-GCaMP5g cells, using a FlexStation 3 multi-modal microplate reader (Molecular Devices). This paradigm, with sustained Carbachol presentation, results in extrusion of the cytosolic Ca^2+ from the cell via plasma membrane Ca^2+ pumps, alongside Ca^2+ store depletion. When Ca^2+ is then added to the media, a Ca^2+ signal is detected that reflects Ca^2+ entry into the cells via Ca^2+ entry pathways [Elliott, 2001 Cell calcium, 30, 73-93].
(§2) This study investigated the effect of Nx-1 and Nx-2 on the Ca^2+ re-entry in the rHEK293-GCaMP5g cells using the FlexStation 3 plate reader in ‘Flex Read’ configuration (485 nm excitation, 510 nm emission, 6 flashes per sample, medium detector sensitivity, 37° C., 780 sample points at 1.54 s intervals). The cells were seeded into the 96 well plates in DMEM media with 10% foetal calf serum supplement. The cells approached confluence at ˜66 hours at which stage the cells were washed with the Ca^2+-free solution, and then the drug was added in Ca^2+ free solution (80 μl) and the plate was then placed into the FlexStation plate reader (37° C.) and rested for 30 minutes prior to imaging. The Carbachol (final concentration 100 μM in Ca^2+ free solution; drug at specified concentration) was added 180 seconds after the start of the Ca^2+ imaging read. The Ca^2+ entry was triggered at 480 seconds by adding 10 μl of Carbachol in Ca^2+ solution with the drug (final concentrations: 100 uM Carbachol, Ca^2+1.3 mM; drug at specified concentration). The Ca^2+ imaging proceeded for a total duration of 20 minutes. Controls utilized DMSO carrier at corresponding dilution used with the drug at specified concentrations. Data analysis was based on the areas under the curves (RFU—relative fluorescence Units), with statistical analysis using Sigmaplot (Systat software, version 12.0) and graphics produced using Graphpad Prism (Graphpad Software, version 7.02).

The subject of assay [2] is rHEK293-GCaMP5g cells. Kind of assay: Ca2+ re-entry in rHEK293-GCaMP5g cells after Ca2+ store depletion (FlexStation 3). To be noted: carbachol 100 μM; for EC50: Ca2+ 1.3 mM restored, areas under the curve (RFU) normalised to DMSO control, read-out: EC50, inhibition of Ca2+ re-entry; for Block of Ca2+ re-entry: compound 4 μM, 1.3 mM Ca2+ restored. The class given is cell-based, human.
From the text: as §1, §2

The EC50 is the concentration needed to bring the measured effect to its halfway point. With `COc1ccc(C2c3ccc(O)cc3OCC2c2ccc(O)cc2)cc1` (racemic) [Nx-2], the “Infarct volume, 5 DPI carrier versus 5 DPI drug (ANOVA, Holm-Sidak)” value in the assay on mice (C57BI/6J) (100 mg/kg) is recorded as “significant difference”. For the same compound, the “Surface infarct area, 5 DPI drug versus core infarct (2 HPI control)” value with mice (C57BI/6J) (100 mg/kg, p=0.064) is given as “not significantly different”. In addition, in the assay with mice (C57BI/6J) (5 DPI, 100 mg/kg, relative to 2 HPI core infarct and 5 DPI carrier), the “Neuroprotection, share of the penumbra expansion (surface infarct area)” value is recorded as 50%. Besides, the infarct surface area with mice (C57BI/6J) (5 days post infarct, 100 mg/kg rectal suppository 45 min after lesion then every 24 h for 4 days, individual mice) is 6.56 mm^2 (2×) and 8.99 mm^2 and 8.19 mm^2 and 5.79 mm^2 and 6.70 mm^2. For the same compound, in the assay on mice (C57BI/6J) (Table 3, 5 days post infarct, Nx-2 100 mg/kg rectal suppository, individual mice), the infarct volume was 13.29 mm^3 and 10.34 mm^3 and 14.65 mm^3 and 12.02 mm^3 and 10.51 mm^3 and 13.76 mm^3. For the same compound, in the assay with rHEK293-GCaMP5g cells [1], the EC50 was ~600 nM and ~700 nM; the “Block of carbachol-induced Ca2+ store release” value is given as “Block; also recorded: virtually blocked”. Also, in the assay with rHEK293-GCaMP5g cells [2], the EC50 was ~600 nM and ~700 nM; the “Block of Ca2+ re-entry” value was “Block”.
For `Oc1ccc(C2=Cc3ccc(O)cc3OC2)cc1` [Nx-1], the “Infarct volume, 5 DPI carrier versus 5 DPI drug (ANOVA, Holm-Sidak)” value in the assay with mice (C57BI/6J) (100 mg/kg) is recorded as “not significantly different”. For the same compound, the infarct volume in the assay with mice (C57BI/6J) (Table 5, 5 days post infarct, Nx-1 100 mg/kg, individual mice) is 11.80 mm^3 and 18.94 mm^3 and 14.16 mm^3 and 16.84 mm^3; with mice (C57BI/6J) (Table 7, 5 days post infarct, Nx-1 100 mg/kg, individual mice), 11.80 mm^3 and 18.94 mm^3 and 14.16 mm^3 and 16.84 mm^3. Also, the half-maximal effective concentration (EC50) with rHEK293-GCaMP5g cells [1] (Homo sapiens) is roughly 1500 nM; with rHEK293-GCaMP5g cells [1], roughly 2000 nM; in the assay with rHEK293-GCaMP5g cells [2] (Homo sapiens), roughly 1500 nM; with rHEK293-GCaMP5g cells [2] it was roughly 2000 nM. Further, in the assay on rHEK293-GCaMP5g cells [1], the “Block of carbachol-induced Ca2+ store release” value is listed as “block; also recorded: virtually blocked”. Further, in the assay on rHEK293-GCaMP5g cells [2], the “Block of Ca2+ re-entry” value was “blocked”.
